Reference: PubChem BioAssay (NCI)
“And” between values parts separate entries of the source, which are not always exact repeats. Identical values can stand only once.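 Following 48 hours of exposure in 96-well plates, responses at five concentrations were used to interpolate endpoints linearly. GI50 is the concentration that inhibits growth by half. TGI denotes the concentration required for complete inhibition of growth.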

How the values were obtained:
Assay in all cases: NCI-60 cell line screen, 48 h
[1] = tested on: 786-0 renal
[2] = tested on: A498 renal
[3] = tested on: A549 NSCLC
[4] = tested on: ACHN renal
[5] = tested on: BT-549 breast
[6] = tested on: CAKI-1 renal
[7] = tested on: CCRF-CEM leukemia
[8] = tested on: COLO 205 colon
[9] = tested on: DU-145 prostate
[10] = tested on: HCC-2998 colon
[11] = tested on: HCT-116 colon
[12] = tested on: HCT-15 colon
[13] = tested on: HL-60(TB) leukemia
[14] = tested on: HOP-62 NSCLC
[15] = tested on: HS 578T breast
[16] = tested on: HT29 colon
[17] = tested on: IGROV1 ovarian
[18] = tested on: K-562 leukemia
[19] = tested on: KM12 colon
[20] = tested on: LOX IMVI melanoma
[21] = tested on: M14 melanoma
[22] = tested on: MALME-3M melanoma
[23] = tested on: MCF7 breast
[24] = tested on: MDA-MB-231 breast
[25] = tested on: MDA-MB-435
[26] = tested on: MOLT-4 leukemia
[27] = tested on: NCI-H226 lung
[28] = tested on: NCI-H23 lung
[29] = tested on: NCI-H460 lung
[30] = tested on: NCI-H522 lung
[31] = tested on: NCI/ADR-RES ovarian
[32] = tested on: OVCAR-3 ovarian
[33] = tested on: OVCAR-4 ovarian
[34] = tested on: OVCAR-5 ovarian
[35] = tested on: OVCAR-8 ovarian
[36] = tested on: PC-3 prostate
[37] = tested on: RPMI-8226 leukemia
[38] = tested on: SF-268 CNS
[39] = tested on: SF-295 CNS
[40] = tested on: SF-539 CNS
[41] = tested on: SK-MEL-2 melanoma
[42] = tested on: SK-MEL-28 melanoma
[43] = tested on: SK-MEL-5 melanoma
[44] = tested on: SK-OV-3 ovarian
[45] = tested on: SN12C renal
[46] = tested on: SNB-19 CNS
[47] = tested on: SNB-75 CNS
[48] = tested on: SR leukemia
[49] = tested on: SW-620 colon
[50] = tested on: T-47D breast
[51] = tested on: U251 CNS
[52] = tested on: UACC-257 melanoma
[53] = tested on: UO-31 renal

COC(=O)[C@H](Cc1cn(C)cn1)NC(=O)[C@H](Cc1ccccc1)NC(=O)Nc1cc(C(F)(F)F)cc(C(F)(F)F)c1 showed a GI50 [1] of 16.8 µM, a TGI [1] of 31.9 µM and a GI50 [2] of 15.8 µM. For the same compound, the TGI [2] was 30.1 µM, the GI50 [3] was 16.1 µM and the TGI [3] was 31.6 µM. For the same compound, the GI50 [4] was 17.2 µM, the TGI [4] was 33.4 µM and the GI50 [5] was 19.2 µM. It also gave a TGI [5] of 34.5 µM, a GI50 [6] of 17.1 µM and a TGI [6] of 31.7 µM. For the same compound, the GI50 [7] was 3.9 µM and 8.86 µM, the TGI [7] was 24.8 µM and the GI50 [8] was 15.3 µM. It also gave a TGI [8] of 31.6 µM, a GI50 [9] of 13.8 µM and a TGI [9] of 27 µM. The GI50 [10] was 3.86 µM, the GI50 [11] was 3.1 µM and 3.54 µM and the TGI [11] was 10.9 µM. The GI50 [12] was 16.9 µM, the TGI [12] was 42.4 µM and the GI50 [13] was 16.5 µM. For the same compound, the TGI [13] was 32.7 µM, the GI50 [14] was 17.5 µM and the TGI [14] was 31.9 µM. For the same compound, the GI50 [15] was 15.1 µM, the TGI [15] was 45.1 µM and the GI50 [16] was 4.97 µM and 14.9 µM. The TGI [16] was 29.8 µM, the GI50 [17] was 18.5 µM and the TGI [17] was 37.2 µM. For the same compound, the GI50 [18] was 7.69 µM and 5.97 µM, the TGI [18] was 20.5 µM and the GI50 [19] was 13.5 µM. For the same compound, the TGI [19] was 28.2 µM, the GI50 [20] was 2.5 µM and 7.46 µM and the TGI [20] was 9.27 µM and 20.6 µM. It also gave a GI50 [21] of 13.5 µM, a TGI [21] of 28.5 µM and a GI50 [22] of 18.2 µM. For the same compound, the TGI [22] was 34.2 µM, the GI50 [23] was 2.58 µM and 5.03 µM and the TGI [23] was 9.73 µM and 29.4 µM. The GI50 [24] was 5.03 µM and 7.85 µM, the TGI [24] was 21.2 µM and the GI50 [25] was 15.3 µM. For the same compound, the TGI [25] was 29.4 µM, the GI50 [26] was 5.87 µM and 11.4 µM and the TGI [26] was 28.9 µM. For the same compound, the GI50 [27] was 19.8 µM, the TGI [27] was 43.8 µM and the GI50 [28] was 17.4 µM. For the same compound, the TGI [28] was 33 µM, the GI50 [29] was 14.2 µM and the TGI [29] was 29.7 µM. For the same compound, the GI50 [30] was 11.7 µM, the TGI [30] was 24.7 µM and the GI50 [31] was 23.9 µM. The TGI [31] was 61.4 µM, the GI50 [32] was 2.25 µM and 3.46 µM and the TGI [32] was 5.42 µM and 11.1 µM. It also gave a GI50 [33] of 13.8 µM, a TGI [33] of 28.5 µM and a GI50 [34] of 16.8 µM. The TGI [34] was 32.5 µM, the GI50 [35] was 8.26 µM and 9.71 µM and the TGI [35] was 22.7 µM. The GI50 [36] was 9.17 µM and 12.4 µM, the TGI [36] was 25.8 µM and the GI50 [37] was 7.49 µM and 11 µM. For the same compound, the TGI [37] was 31.5 µM, the GI50 [38] was 4.26 µM and 10.2 µM and the TGI [38] was 23.8 µM. For the same compound, the GI50 [39] was 16.4 µM, the TGI [39] was 31.5 µM and the GI50 [40] was 17.2 µM. For the same compound, the TGI [40] was 33 µM, the GI50 [41] was 17.7 µM and the TGI [41] was 32.3 µM. It also gave a GI50 [42] of 17.9 µM, a TGI [42] of 35.2 µM and a GI50 [43] of 16.2 µM. It also gave a TGI [43] of 30.7 µM, a GI50 [44] of 19.2 µM and a TGI [44] of 33.3 µM. For the same compound, the GI50 [45] was 11.7 µM, the TGI [45] was 24.6 µM and the GI50 [46] was 14.2 µM. The TGI [46] was 28.3 µM, the GI50 [47] was 15.6 µM and the TGI [47] was 30 µM. The GI50 [48] was 2.54 µM and 2.21 µM, the TGI [48] was 6.07 µM and 5.05 µM and the GI50 [49] was 14.5 µM. For the same compound, the TGI [49] was 30.6 µM, the GI50 [50] was 3.54 µM and 8.29 µM and the TGI [50] was 27 µM. The GI50 [51] was 11.9 µM, the TGI [51] was 24.6 µM and the GI50 [52] was 16.1 µM. For the same compound, the TGI [52] was 30.1 µM, the GI50 [53] was 16.6 µM and the TGI [53] was 30.5 µM.
